# Laboratory results published in article PMC2918654 (Bioorganic & medicinal chemistry, 2010).
# Where two headings read alike, the source gives them in different places. Where a SMILES comes first, the peptide text is derived from it. [ ]: non-standard residue; d: D form. The star is where a group is joined. Dmt = Cc1cc(O)cc(C)c1C[C@H](N)C(=O)O; Tic = O=C(O)[C@@H]1Cc2ccccc2CN1; NHBn = c1ccc(CN*)cc1
# Tests used:
# δ-opioid receptors [1] = target: T1, δ-opioid receptors (Rattus norvegicus, UniProt P33533); conditions: ref Balboni et al.[14]; cited from earlier work
# T1 sequence (P33533 whole entry): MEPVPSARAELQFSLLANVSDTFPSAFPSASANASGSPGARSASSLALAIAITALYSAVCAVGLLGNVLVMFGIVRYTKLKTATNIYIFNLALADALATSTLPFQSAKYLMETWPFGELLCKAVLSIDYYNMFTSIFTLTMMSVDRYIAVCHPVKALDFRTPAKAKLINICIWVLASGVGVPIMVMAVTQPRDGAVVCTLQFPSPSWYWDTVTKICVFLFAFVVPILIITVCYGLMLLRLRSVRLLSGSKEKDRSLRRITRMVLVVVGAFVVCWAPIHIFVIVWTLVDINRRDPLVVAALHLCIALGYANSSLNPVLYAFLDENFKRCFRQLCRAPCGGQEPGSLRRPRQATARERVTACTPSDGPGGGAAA
# δ-opioid receptor [2] = target: T2, δ-opioid receptor (Mus musculus, UniProt P32300); conditions: δ antagonism, cited from earlier work
# T2 sequence (P32300 whole entry): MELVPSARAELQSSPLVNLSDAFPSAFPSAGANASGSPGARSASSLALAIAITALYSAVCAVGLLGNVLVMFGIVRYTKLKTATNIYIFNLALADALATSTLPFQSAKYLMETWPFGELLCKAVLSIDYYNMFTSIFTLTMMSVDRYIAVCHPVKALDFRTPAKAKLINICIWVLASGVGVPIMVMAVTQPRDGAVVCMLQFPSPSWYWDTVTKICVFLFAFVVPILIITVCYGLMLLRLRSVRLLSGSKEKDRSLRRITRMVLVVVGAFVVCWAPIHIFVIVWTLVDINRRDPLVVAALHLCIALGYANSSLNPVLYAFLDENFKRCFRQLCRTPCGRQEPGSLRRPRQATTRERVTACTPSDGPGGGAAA
# μ-opioid receptor [3] = target: T3, μ-opioid receptor (Cavia porcellus, UniProt P97266); conditions: μ antagonism, cited from earlier work
# T3 sequence (P97266 whole entry, looked up): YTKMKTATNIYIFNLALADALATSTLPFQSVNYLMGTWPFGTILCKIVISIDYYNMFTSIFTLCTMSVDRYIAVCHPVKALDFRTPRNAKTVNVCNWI
# δ-opioid receptors [4] = target: T1, δ-opioid receptors; test: Competitive binding assay, δ-opioid receptors, [3H]deltorphin II; set-up: species or system Sprague-Dawley rats; conditions: for selectivity Ki^μ/Ki^δ: ratio of binding Ki values
# μ-opioid receptors = μ-opioid receptors (Rattus norvegicus, UniProt P33535); test: Competitive binding assay, μ-opioid receptors, [3H]DAMGO; set-up: species or system Sprague-Dawley rats
# Sequence of μ-opioid receptors (P33535 whole entry): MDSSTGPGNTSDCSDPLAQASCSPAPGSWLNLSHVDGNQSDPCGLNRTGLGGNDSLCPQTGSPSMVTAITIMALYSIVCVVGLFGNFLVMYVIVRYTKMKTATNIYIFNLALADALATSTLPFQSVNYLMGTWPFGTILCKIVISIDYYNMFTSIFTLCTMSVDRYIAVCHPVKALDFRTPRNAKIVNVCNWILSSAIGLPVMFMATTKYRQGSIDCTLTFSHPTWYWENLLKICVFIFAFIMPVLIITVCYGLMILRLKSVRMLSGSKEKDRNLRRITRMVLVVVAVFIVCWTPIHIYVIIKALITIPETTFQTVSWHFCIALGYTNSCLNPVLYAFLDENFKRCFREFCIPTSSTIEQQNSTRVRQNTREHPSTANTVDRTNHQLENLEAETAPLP
# δ opioid receptor = conditions: read-out: δ agonist IC50; cited from earlier work
# δ-opioid receptor [5] = target: T2, δ-opioid receptor; test: Electrically stimulated mouse vas deferens; type: cell-based
# μ-opioid receptor [6] = target: T3, μ-opioid receptor; test: Electrically stimulated guinea-pig ileum; type: cell-based, guinea pigs
# [7] = about 2 units lower than Tyr; cited from earlier work
compound,measurement,setting,value
"Cc1cc(O)cc(C)c1C[C@H](N)C(=O)N1Cc2ccccc2C[C@H]1C(=O)N[C@@H](CCCCN)C(=O)NCc1ccccc1 [Compound 10, H-Dmt-Tic-Lys-NH-Bzl] (H-[Dmt]-[Tic]-Lys-NHBn)",selectivity Ki^μ/Ki^δ,δ-opioid receptors [1],8
same,functional bioactivity MVD pA2,δ-opioid receptor [2]; ref Balboni et al.[14],6.01
same,functional bioactivity GPI pA2,μ-opioid receptor [3]; ref Balboni et al.[14],7.96
"NCCCC[C@H](NC(=O)[C@@H]1Cc2ccccc2CN1C(=O)[C@@H](N)Cc1ccc(O)cc1)C(=O)NCc1ccccc1 [Compound 12, H-Tyr-Tic-Lys-NH-Bzl] (H-Tyr-[Tic]-Lys-NHBn)",Ki,δ-opioid receptors [4],63.9 ± 7.6 nM
same,selectivity Ki^μ/Ki^δ,δ-opioid receptors [4],26
same,Ki,μ-opioid receptors,1650 ± 231 nM
"Cc1cc(O)cc(C)c1C[C@@H](C(=O)N1Cc2ccccc2C[C@H]1C(N)=O)N(C)C [Compound 16, N,N(Me)2-Dmt-Tic-NH2]",functional bioactivity MVD pA2,δ-opioid receptor [2]; ref Salvadori et al.[15],9.9
same,functional bioactivity GPI pA2,μ-opioid receptor [3]; ref Salvadori et al.[15],6.3
H-Bcp-Tic-Phe-Phe-OH,IC50,δ opioid receptor,3.42 nM
"CC(C)[C@H](NC(=O)[C@H](CCC(=O)O)NC(=O)[C@H](Cc1ccccc1)NC(=O)[C@@H](C)NC(=O)[C@@H](N)Cc1c(F)cc(O)cc1F)C(=O)N[C@H](C(=O)NCC(N)=O)C(C)C [Compound 8, [Dft^1]Deltorphin B]",Ki,δ-opioid receptors [4],0.241 ± 0.03 nM
same,selectivity Ki^μ/Ki^δ,δ-opioid receptors [4],640
same,Ki,μ-opioid receptors,154 ± 19 nM
same,IC50,δ-opioid receptor [5],0.4 ± 0.08 nM
same,IC50,μ-opioid receptor [6],3560 ± 566 nM
"NCCCC[C@H](NC(=O)[C@@H]1Cc2ccccc2CN1C(=O)[C@@H](N)Cc1c(F)cc(O)cc1F)C(=O)NCc1ccccc1 [Compound 11, H-Dft-Tic-Lys-NH-Bzl]",Ki,δ-opioid receptors [4],153 ± 21 nM
same,selectivity Ki^μ/Ki^δ,δ-opioid receptors [4],7
same,Ki,μ-opioid receptors,1030 ± 83 nM
"N[C@@H](Cc1c(F)cc(O)cc1F)C(=O)O [Dft, 2′,6′-difluoro-L-tyrosine]",pKa,[7],8.1
"Cc1cc(O)cc(C)c1C[C@@H](C(=O)N1Cc2ccccc2C[C@H]1C(=O)O)N(C)C [Compound 13, N,N(Me)2-Dmt-Tic-OH]",functional bioactivity MVD pA2,δ-opioid receptor [2]; ref Salvadori et al.[15],9.4
same,functional bioactivity GPI pA2,μ-opioid receptor [3]; ref Salvadori et al.[15],5.8
"CC(C)[C@H](NC(=O)[C@H](CCC(=O)O)NC(=O)[C@H](Cc1ccccc1)NC(=O)[C@@H](C)NC(=O)[C@@H](N)Cc1ccc(O)cc1)C(=O)N[C@H](C(=O)NCC(N)=O)C(C)C [Compound 9, H-Tyr-D-Ala-Phe-Glu-Val-Val-Gly-NH2, reference compound]",IC50,μ-opioid receptor [6],> 10000 nM
